Experimental data published in ChEMBL document CHEMBL4616582, “Green recipes to quinoline: A review” (Eur J Med Chem, 2019).
Values after ≈ are worked out from the molar mass of the structure shown.

Legend:
Format in all cases: functional, organism-based
Leishmania donovani [1] = assay: Antileishmanial activity against Leishmania donovani promastigotes
Leishmania donovani [2] = assay: Antileishmanial activity against Leishmania donovani amastigotes
Plasmodium falciparum = assay: Antimalarial activity against chloroquine and quinine sensitive Plasmodium falciparum

Nc1ccccc1C(=O)c1ccccc1
IC50 (Leishmania donovani [1]): 1.34 to 3.26 µg/mL (≈ 6.79 to 16.5 µM) | IC50 (Leishmania donovani [2]): 1.34 to 3.26 µg/mL (≈ 6.79 to 16.5 µM)

Nc1ccc(Cl)cc1C(=O)c1ccccc1
IC50 (Leishmania donovani [1]): 1.34 to 3.26 µg/mL (≈ 5.78 to 14.1 µM) | IC50 (Leishmania donovani [2]): 1.34 to 3.26 µg/mL (≈ 5.78 to 14.1 µM)

CSC(=S)/C=C(\O)c1ccccc1
IC50 (Leishmania donovani [1]): 1.34 to 3.26 µg/mL (≈ 6.37 to 15.5 µM) | IC50 (Leishmania donovani [2]): 1.34 to 3.26 µg/mL (≈ 6.37 to 15.5 µM)

CSC(=S)/C=C(\O)c1ccc(C)cc1
IC50 (Leishmania donovani [1]): 1.34 to 3.26 µg/mL (≈ 5.97 to 14.5 µM) | IC50 (Leishmania donovani [2]): 1.34 to 3.26 µg/mL (≈ 5.97 to 14.5 µM)

CSC(=S)/C=C(\O)c1ccccc1Cl
IC50 (Leishmania donovani [1]): 1.34 to 3.26 µg/mL (≈ 5.47 to 13.3 µM) | IC50 (Leishmania donovani [2]): 1.34 to 3.26 µg/mL (≈ 5.47 to 13.3 µM)

CSC(=S)/C=C(\O)c1ccco1
IC50 (Leishmania donovani [1]): 1.34 to 3.26 µg/mL (≈ 6.69 to 16.3 µM) | IC50 (Leishmania donovani [2]): 1.34 to 3.26 µg/mL (≈ 6.69 to 16.3 µM)

CSC(=S)/C=C(\O)c1cccc(C)c1
IC50 (Leishmania donovani [1]): 1.34 to 3.26 µg/mL (≈ 5.97 to 14.5 µM) | IC50 (Leishmania donovani [2]): 1.34 to 3.26 µg/mL (≈ 5.97 to 14.5 µM)

CSC(=S)/C=C(\O)c1cccs1
IC50 (Leishmania donovani [1]): 1.34 to 3.26 µg/mL (≈ 6.19 to 15.1 µM) | IC50 (Leishmania donovani [2]): 1.34 to 3.26 µg/mL (≈ 6.19 to 15.1 µM)

COc1ccc(/C(O)=C/C(=S)SC)cc1
IC50 (Leishmania donovani [1]): 1.34 to 3.26 µg/mL (≈ 5.58 to 13.6 µM) | IC50 (Leishmania donovani [2]): 1.34 to 3.26 µg/mL (≈ 5.58 to 13.6 µM)

CSC(=S)/C=C(\O)c1ccc(C(F)(F)F)cc1
IC50 (Leishmania donovani [1]): 1.34 to 3.26 µg/mL (≈ 4.81 to 11.7 µM) | IC50 (Leishmania donovani [2]): 1.34 to 3.26 µg/mL (≈ 4.81 to 11.7 µM)

CCCCCCCCCCCCCCCCOP(=O)([O-])OCC[N+](C)(C)C [MILTEFOSINE]
IC50 (Leishmania donovani [1]): 4.54 µg/mL (≈ 11.1 µM) | IC50 (Leishmania donovani [2]): 8.2 µg/mL (≈ 20.1 µM)

C=C[C@H]1CN2CC[C@H]1C[C@H]2[C@H](O)c1ccnc2ccc(OC)cc12 [QUININE]
IC50 (Plasmodium falciparum): 0.268 µg/mL (≈ 0.826 µM)
